Assay [1] concerns the target T1, Metabotropic glutamate receptor 4 (Rattus norvegicus, UniProt P31423). The assay is described as follows: Functional activity at rat mGluR4.
Assay [2] concerns the target Metabotropic glutamate receptor 1 (Rattus norvegicus, UniProt P23385). The experiment in a line: Activity at rat mGluR1 by measuring intracellular calcium concentration in CHO cells. Format: functional, cell-based.
Assay [3] addresses Metabotropic glutamate receptor 6 (Rattus norvegicus, UniProt P35349). The assay is described as follows: Activity at rat mGluR6 by measuring cAMP formation in CHO cells. Format: functional, cell-based. For orientation: Cyclic AMP is a second messenger, typically raised through Gs and lowered through Gi signalling.
The target in assay [4] is Metabotropic glutamate receptor 7 (Homo sapiens, UniProt Q14831). The assay is described as follows: Activity at human mGluR7 by measuring cAMP formation in BHK cells. Format: functional, cell-based.
Sequence of Metabotropic glutamate receptor 7 (Q14831 whole entry): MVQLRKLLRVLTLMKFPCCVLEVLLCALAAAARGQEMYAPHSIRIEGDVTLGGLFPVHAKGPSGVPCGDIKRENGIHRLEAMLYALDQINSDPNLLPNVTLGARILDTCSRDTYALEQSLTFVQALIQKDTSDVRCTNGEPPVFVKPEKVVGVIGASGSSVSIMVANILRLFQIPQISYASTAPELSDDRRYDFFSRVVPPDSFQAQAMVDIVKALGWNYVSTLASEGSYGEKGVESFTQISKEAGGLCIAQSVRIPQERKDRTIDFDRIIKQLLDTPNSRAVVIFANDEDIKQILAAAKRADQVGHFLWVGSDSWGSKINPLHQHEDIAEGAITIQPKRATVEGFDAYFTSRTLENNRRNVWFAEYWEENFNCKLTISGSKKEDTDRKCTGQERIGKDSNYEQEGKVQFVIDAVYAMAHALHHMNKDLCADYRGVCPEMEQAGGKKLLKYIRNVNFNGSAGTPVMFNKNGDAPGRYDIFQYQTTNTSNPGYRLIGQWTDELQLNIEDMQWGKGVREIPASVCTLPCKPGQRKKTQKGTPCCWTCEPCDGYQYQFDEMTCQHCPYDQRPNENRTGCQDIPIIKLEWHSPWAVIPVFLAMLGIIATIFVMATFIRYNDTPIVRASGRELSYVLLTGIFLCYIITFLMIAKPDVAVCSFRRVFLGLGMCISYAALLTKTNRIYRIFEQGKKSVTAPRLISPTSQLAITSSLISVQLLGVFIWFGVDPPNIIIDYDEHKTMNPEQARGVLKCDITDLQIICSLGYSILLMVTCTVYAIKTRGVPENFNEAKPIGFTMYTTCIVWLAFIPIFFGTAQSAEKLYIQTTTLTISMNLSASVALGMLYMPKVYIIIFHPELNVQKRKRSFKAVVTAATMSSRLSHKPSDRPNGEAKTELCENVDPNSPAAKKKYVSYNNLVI
Assay [5] addresses T1, Metabotropic glutamate receptor 4. The assay is described as follows: Displacement of [3H]L-AP4 from rat mGluR4 expressed in BHK cells. Format: cell-based. (In a radioligand displacement assay an active substance lowers the binding of a labelled ligand.)
The target of assay [6] is Metabotropic glutamate receptor 5 (Rattus norvegicus, UniProt P31424). The experiment in a line: Activity at rat mGluR5 by measuring intracellular calcium concentration in CHO cells. Format: functional, cell-based.
Sequence of Metabotropic glutamate receptor 5 (P31424 whole entry): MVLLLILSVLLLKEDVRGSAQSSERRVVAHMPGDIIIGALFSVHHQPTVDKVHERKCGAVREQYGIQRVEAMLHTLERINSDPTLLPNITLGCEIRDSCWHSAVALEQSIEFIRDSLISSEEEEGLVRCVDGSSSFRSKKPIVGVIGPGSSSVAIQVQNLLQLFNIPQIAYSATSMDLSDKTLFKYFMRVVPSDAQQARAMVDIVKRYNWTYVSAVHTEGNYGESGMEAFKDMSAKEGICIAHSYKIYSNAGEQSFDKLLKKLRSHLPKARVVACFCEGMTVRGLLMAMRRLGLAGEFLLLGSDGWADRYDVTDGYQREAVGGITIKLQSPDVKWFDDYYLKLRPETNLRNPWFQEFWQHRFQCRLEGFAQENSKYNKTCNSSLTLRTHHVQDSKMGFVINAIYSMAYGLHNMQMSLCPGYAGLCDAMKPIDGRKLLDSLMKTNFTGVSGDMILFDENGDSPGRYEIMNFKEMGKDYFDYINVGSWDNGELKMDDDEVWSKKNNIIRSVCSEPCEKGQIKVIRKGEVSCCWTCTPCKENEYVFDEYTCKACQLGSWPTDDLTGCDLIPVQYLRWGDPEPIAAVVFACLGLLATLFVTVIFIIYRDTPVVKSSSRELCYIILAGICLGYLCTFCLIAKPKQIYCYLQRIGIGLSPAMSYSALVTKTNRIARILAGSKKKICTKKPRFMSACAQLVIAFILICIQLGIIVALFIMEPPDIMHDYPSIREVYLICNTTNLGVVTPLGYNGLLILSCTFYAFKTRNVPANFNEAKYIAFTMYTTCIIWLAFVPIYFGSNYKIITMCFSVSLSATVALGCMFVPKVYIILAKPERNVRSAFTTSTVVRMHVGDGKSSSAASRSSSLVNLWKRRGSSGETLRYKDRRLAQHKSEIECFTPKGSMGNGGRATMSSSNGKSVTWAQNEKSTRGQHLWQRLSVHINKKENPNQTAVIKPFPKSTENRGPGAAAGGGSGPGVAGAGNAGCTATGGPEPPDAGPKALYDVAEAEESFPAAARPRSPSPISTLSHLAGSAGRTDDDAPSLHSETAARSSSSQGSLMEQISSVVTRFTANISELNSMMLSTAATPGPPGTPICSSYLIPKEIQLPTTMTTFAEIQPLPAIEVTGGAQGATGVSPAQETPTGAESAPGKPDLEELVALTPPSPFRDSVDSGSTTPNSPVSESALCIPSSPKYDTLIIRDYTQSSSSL
Assay [7] concerns the target Metabotropic glutamate receptor 8 (Rattus norvegicus, UniProt P70579). The assay is described as follows: Displacement of [3H]LY341495 from rat mGluR8 expressed in BHK cells. Format: cell-based.
Assay [8] deals with Metabotropic glutamate receptor 2 (Homo sapiens, UniProt Q14416). The experiment in a line: Activity at human mGluR2 from BHK cells in [35S]GTP-gamma-S stimulation assay. Format: functional, cell-based. A general note: GTPγS is a poorly hydrolysed GTP analogue; its binding reports G protein activation.

Sequence of Metabotropic glutamate receptor 8 (P70579 whole entry): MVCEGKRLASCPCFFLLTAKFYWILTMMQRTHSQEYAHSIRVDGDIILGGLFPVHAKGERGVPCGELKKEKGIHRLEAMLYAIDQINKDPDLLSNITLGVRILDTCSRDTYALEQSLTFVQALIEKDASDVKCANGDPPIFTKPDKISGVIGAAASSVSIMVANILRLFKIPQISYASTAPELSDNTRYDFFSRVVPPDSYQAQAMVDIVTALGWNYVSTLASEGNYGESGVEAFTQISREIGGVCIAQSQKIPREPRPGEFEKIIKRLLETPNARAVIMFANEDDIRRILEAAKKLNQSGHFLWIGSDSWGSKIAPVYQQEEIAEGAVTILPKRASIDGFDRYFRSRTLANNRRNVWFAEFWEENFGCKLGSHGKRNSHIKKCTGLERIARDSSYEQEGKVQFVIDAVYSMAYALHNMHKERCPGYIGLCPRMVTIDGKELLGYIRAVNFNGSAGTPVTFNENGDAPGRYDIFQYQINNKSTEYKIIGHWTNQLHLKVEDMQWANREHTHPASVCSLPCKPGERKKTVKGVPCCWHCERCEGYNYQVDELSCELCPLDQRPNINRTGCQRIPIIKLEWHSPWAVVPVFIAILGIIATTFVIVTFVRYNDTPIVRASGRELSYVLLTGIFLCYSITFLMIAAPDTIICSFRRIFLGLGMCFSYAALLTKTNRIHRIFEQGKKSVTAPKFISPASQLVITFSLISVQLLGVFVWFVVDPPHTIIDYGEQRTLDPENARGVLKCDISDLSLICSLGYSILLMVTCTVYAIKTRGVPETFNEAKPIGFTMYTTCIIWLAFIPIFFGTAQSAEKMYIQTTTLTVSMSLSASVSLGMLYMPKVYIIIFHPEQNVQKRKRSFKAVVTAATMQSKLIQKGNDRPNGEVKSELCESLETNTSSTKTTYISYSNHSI
Sequence of Metabotropic glutamate receptor 6 (P35349 whole entry): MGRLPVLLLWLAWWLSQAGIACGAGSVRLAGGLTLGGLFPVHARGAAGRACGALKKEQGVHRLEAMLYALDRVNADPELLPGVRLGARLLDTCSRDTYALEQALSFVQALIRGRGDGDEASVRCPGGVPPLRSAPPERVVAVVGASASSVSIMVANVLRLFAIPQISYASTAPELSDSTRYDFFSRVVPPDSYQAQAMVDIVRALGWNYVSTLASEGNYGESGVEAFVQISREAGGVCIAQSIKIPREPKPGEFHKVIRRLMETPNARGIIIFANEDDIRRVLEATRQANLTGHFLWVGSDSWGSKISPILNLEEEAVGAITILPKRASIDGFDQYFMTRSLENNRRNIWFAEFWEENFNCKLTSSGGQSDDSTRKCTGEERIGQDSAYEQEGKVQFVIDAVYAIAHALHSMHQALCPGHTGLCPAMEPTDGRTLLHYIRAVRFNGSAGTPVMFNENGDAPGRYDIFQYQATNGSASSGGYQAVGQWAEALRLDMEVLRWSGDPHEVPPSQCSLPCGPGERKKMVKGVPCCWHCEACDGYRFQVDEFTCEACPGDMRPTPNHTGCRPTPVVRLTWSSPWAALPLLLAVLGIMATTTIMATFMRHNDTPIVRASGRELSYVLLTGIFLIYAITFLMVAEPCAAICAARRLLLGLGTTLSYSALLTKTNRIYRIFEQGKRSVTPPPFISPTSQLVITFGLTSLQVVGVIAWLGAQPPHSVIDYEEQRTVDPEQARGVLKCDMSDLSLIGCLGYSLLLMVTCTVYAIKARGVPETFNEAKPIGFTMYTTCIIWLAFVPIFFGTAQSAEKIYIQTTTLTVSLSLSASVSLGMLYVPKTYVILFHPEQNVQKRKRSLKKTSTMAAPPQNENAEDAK
Sequence of Metabotropic glutamate receptor 1 (P23385 whole entry): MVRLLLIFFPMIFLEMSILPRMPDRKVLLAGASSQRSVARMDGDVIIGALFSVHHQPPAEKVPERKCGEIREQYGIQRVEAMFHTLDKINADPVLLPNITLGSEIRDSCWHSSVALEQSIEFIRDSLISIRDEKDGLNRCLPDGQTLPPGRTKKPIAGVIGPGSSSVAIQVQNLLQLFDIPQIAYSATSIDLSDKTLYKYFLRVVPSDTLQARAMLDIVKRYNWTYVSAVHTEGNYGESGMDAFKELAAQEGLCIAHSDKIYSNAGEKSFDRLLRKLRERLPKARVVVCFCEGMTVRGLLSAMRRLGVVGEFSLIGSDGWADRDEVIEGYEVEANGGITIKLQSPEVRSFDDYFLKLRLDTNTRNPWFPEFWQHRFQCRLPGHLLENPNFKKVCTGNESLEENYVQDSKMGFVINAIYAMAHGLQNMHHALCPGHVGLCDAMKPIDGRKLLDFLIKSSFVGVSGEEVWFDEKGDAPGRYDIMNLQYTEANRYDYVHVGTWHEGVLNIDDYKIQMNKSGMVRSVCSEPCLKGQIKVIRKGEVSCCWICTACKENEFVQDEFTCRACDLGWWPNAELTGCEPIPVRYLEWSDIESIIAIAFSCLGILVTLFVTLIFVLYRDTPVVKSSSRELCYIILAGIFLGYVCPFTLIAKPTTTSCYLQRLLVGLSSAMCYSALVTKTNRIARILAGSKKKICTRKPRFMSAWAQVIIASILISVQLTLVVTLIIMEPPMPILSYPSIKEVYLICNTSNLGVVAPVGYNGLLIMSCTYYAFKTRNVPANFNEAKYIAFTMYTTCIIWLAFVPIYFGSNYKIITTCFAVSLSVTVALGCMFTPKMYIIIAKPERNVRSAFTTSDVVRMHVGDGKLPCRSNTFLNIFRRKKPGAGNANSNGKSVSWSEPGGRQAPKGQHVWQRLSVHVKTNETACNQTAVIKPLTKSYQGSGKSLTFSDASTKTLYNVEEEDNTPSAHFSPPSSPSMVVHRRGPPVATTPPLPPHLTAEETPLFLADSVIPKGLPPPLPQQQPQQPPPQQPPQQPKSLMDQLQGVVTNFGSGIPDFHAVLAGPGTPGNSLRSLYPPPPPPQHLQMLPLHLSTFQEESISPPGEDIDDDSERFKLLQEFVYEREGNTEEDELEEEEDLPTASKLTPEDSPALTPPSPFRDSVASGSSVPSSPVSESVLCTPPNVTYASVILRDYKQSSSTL

A word on the EC50: it is the concentration needed to bring the measured effect to its halfway point. The term Ki denotes the equilibrium dissociation constant of an inhibitor or competing ligand from its target. Low values mean tighter binding, high ones weaker binding. Regarding `N[C@H](C(=O)O)[C@H]1C[C@@H]1P(=O)(O)O`, the EC50 in assay [1] was 9.4 µM; in assay [2], more than 1000 µM; in assay [3] it was 13 µM; in assay [4], 700 µM; in assay [6], more than 1000 µM; in assay [8], more than 1000 µM. For the same molecule, the Ki in assay [5] came to 7.4 µM; in assay [7], 63 µM.

As to `N[C@H](C(=O)O)[C@@H]1C[C@H]1P(=O)(O)O`, the concentration for a half-maximal effect (EC50) in assay [1] was 49 µM; in assay [2] it was more than 1000 µM; in assay [3], 46 µM; in assay [4], more than 1000 µM; in assay [6], more than 1000 µM; in assay [8], more than 1000 µM. Also, the inhibition constant Ki in assay [5] turned out to be 53 µM; in assay [7], 54 µM.

On to `N[C@@H](CCP(=O)(O)O)C(=O)O`, for which the EC50 was 0.51 µM in assay [1]; more than 1000 µM in assay [2]; 0.34 µM in assay [3]; 188 µM in assay [4]; more than 1000 µM in assay [6]; more than 1000 µM in assay [8]. Besides, the Ki in assay [5] came to 0.16 µM; in assay [7], 1.9 µM.

On to `N[C@@H](CCC(=O)O)C(=O)O` [GLUTAMIC ACID], for which the EC50 was 6.1 µM in assay [1], 7.6 µM in assay [3] and more than 1000 µM in assay [4]. Moreover, the Ki in assay [5] and in assay [7] was 3.4 µM throughout.
